These results are taken from patent US9616107B2, “Therapy for kidney disease and/or heart failure” (priority 2011, dated 2017).

Data set [1] is described as follows: Pharmacodynamic study of VD in canines: 10-day subcutaneous infusion in high-rate paced heart failure model. The format is in vivo, canine. To be noted: dog, plasma; Day 10 of continuous vessel dilator infusion 100 ng/kg·min SC; Day 0 0.66+/−0.37; read-out: Pre-proANF (56-92) plasma concentration (radioimmunoassay). The protocol: A pharmaceutical formulation of VD was prepared in a Tris buffer. 16.0 g glycerol, 6.05 g tris-(hydroxymethyl)-aminomethane (“Tris”), 2.50 g meta cresol were mixed in a 1.00 L volumetric flask. Approximately 900 mL nanopure water was added to the volumetric flask and the mixture was magnetically stirred to reach complete dissolution. 4 normal hydrochloric acid was used to adjust pH to 7.3 at 25° C. Then, the flask was filled to 1 L mark with nanopure water. The pH was rechecked and verified to be 7.3 at 25° C. The pH 7.3 Tris buffer was stored at 2-8° C. until use.
Lyophilized VD peptide (Bachem) was weighted into a glass vial and dissolved into a known volume of the Tris buffer to a concentration between 1 mg/mL and 10 mg/mL. The VD peptide was dissolved by gentle mixing and the solution was allowed to rest for between 20 and 30 minutes. The pH of the solution was checked and adjusted to 7.3 with 0.1 N sodium hydroxide. […]
Seven days prior to the beginning of HRP (Day −7), all dogs were instrumented for ventricular pacing with an IPG (implantable pulse generator) including an RA (right atrium) and RV (right ventricle) lead, and a DSI (Digital Sciences International) device in the femoral artery for arterial blood pressure monitoring. Glomerular filtration rate (GFR) was measured by iohexol clearance on the day before the beginning of HRP (Day −1). […]

The format of data set [2] is physicochemical. The source says: Elliotts B® Solution is a sterile, non-pyrogenic, isotonic buffer that is approved by the United States Food and Drug Administration (FDA) for intrathecal administration of methotrexate sodium and cytarabine. Elliotts B® Solution will be used as a diluent for VD since it provides the appropriate isotonicity and pH attributes desired for SC administration. […] The detailed contents of Elliots B® Solution are provided in the Trial Dispensing Protocol. Storage conditions of the raw material, Elliotts B® Solution, as well as the reconstitution method will be supplied in a Pharmacy Guideline provided during the study.

Ends that are not written are not given here.

On to “EVVPPQVLSEPNEEAGAALSPLPEVPPWTGEVSPAQR [VD, Vessel Dilator]”, for which, in data set [1], the level at 240 h turned out to be 41.1 ng/mL. Moreover, the “stability and compatibility of VD in Elliotts B Solution” value in data set [2] is given as “has been demonstrated”.
